Counter-ions that a name gives are not always drawn.
Test: in vitro
Details: rat, gh3-tre-luc cells, AC50 (uM) modified / 1000

SMILES	CC50 at 24 h
C[N+](C)(C)CCO [Cholin acetate]	> 50 µM
O=C(O)c1cc(C(=O)O)cc(C(=O)O)c1 [1,3,5-Benzenetricarboxylic acid]	> 90 µM
CCCCCCCC/C=C\CCCCCCCC(=O)NCc1ccc(O)c(OC)c1 [Olvanil]	8.65 µM
CCNC(=O)[C@@H]1CCCN1C(=O)[C@H](CCCNC(=N)N)NC(=O)[C@H](CC(C)C)NC(=O)[C@@H](CC(C)C)NC(=O)[C@H](Cc1ccc(O)cc1)NC(=O)[C@H](CO)NC(=O)[C@H](Cc1c[nH]c2ccccc12)NC(=O)[C@H](Cc1c[nH]cn1)NC(=O)[C@@H]1CCC(=O)N1 [Leuprolide acetate salt]	> 50 µM
Nc1c2ccccc2nc2ccccc12 [9-Aminoacridine, monohydrochloride, monohydrate]	> 90 µM
COc1cc([C@@H]2c3cc4c(cc3[C@@H](O[C@@H]3O[C@@H]5CO[C@@H](c6cccs6)O[C@H]5[C@H](O)[C@H]3O)[C@H]3COC(=O)[C@H]23)OCO4)cc(OC)c1O [Teniposide]	4.5 µM
CN1C(=O)/C(=N\NC(N)=S)c2ccccc21 [Methisazone]	34.2 µM
N#CCCN(CCO)CCO [3-[Bis(2-hydroxyethyl)amino]propanenitrile]	> 90 µM
O=C(O)Cc1ccccc1Oc1ccc(Cl)cc1Cl [Fenclofenac]	> 50 µM
CCC(=O)O[C@H]1[C@H](O[C@@H]2[C@@H](C)[C@H](O[C@H]3C[C@@](C)(OC)[C@@H](O)[C@H](C)O3)[C@@H](C)C(=O)O[C@H](CC)[C@@](C)(O)[C@H](O)[C@@H](C)C(=O)[C@H](C)C[C@@]2(C)O)O[C@H](C)C[C@@H]1N(C)C [Erythromycin propionate]	13.1 µM
CC(C)NCC(O)c1ccc([N+](=O)[O-])cc1 (centres unmarked) [Nifenalol]	> 50 µM
COC(C=C(C)CCC=C(C)C)OC [1,1-Dimethoxy-3,7-dimethylocta-2,6-diene]	> 90 µM
CCCC[N+]1(C)CCCC1 [1-Butyl-1-methylpyrrolidinium hexafluorophosphate]	> 90 µM
CO[Si](CCCNCCN)(OC)OC [N-[3-(Trimethoxysilyl)propyl]ethane-1,2-diamine]	> 90 µM
CCCCCCCC/C=C\CCCCCCCC(=O)O [Oleic acid]	> 90 µM
Cc1ccc(N)cc1N [2,4-Diaminotoluene]	> 90 µM
COC(=O)c1ccc(C(=O)O)cc1 [1,4-Benzenedicarboxylic acid, monomethyl ester]	> 90 µM
O=C(O)CC(=O)C(=O)O [2-Oxobutanedioic acid]	> 90 µM
O=C(OC1CCCCC1)c1ccccc1C(=O)OC1CCCCC1 [Dicyclohexyl phthalate]	40.2 µM
O=S(=O)(O)Oc1ccc(C(c2ccc(OS(=O)(=O)O)cc2)c2ccccn2)cc1 [Picosulfate sodium]	> 50 µM
O=C(CCN1CC1)OCC(CO)(COC(=O)CCN1CC1)COC(=O)CCN1CC1 [3-{[3-(Aziridin-1-yl)propanoyl]oxy}-2-({[3-(aziridin-1-yl)propanoyl]oxy}methyl)-2-(hydroxymethyl)propyl 3-(aziridin-1-yl)propanoate]	> 90 µM
Cc1ccc(S(=O)(=O)NCl)cc1 [Chloramine T hydrate (1:x)]	> 80 µM
C1COC1 [1,3-Propylene oxide]	> 90 µM

SMILES	CC50 at 24 h
CC(C)c1ccc(CO)cc1 [4-Isopropylbenzyl alcohol]	> 90 µM
CCCCC(CC)COC(=O)CCCCCCCC(=O)OCC(CC)CCCC (centres unmarked) [Bis(2-ethylhexyl) nonanedioate]	> 90 µM
O=C1OC(=O)c2cc(Oc3ccc4c(c3)C(=O)OC4=O)ccc21 [5,5'-Oxybis(2-benzofuran-1,3-dione)]	> 90 µM
O=[N+]([O-])O[C@@H]1CO[C@H]2[C@@H]1OC[C@@H]2O [Isosorbide 5-mononitrate]	> 50 µM
CC(C)(C)NCC(O)c1ccc(O)c(CO)n1 (centres unmarked) [Pirbuterol hydrochloride]	> 50 µM
O=C1c2ccccc2-c2n[nH]c3cccc1c23 [SP600125]	> 50 µM
O=C(O)[C@H](O)c1ccccc1 [D-(-)-Mandelic acid]	> 50 µM
CCC(=O)OCC(=O)[C@@]1(OC(=O)CC)[C@H](C)C[C@H]2[C@H]3[C@H]([C@@H](O)C[C@@]21C)[C@@]1(C)C=CC(=O)C=C1C[C@H]3Cl [Alclometasone dipropionate]	> 20 µM
CC(C)CCCC(C)(C)O [2,6-Dimethyl-2-heptanol]	> 90 µM
Nc1n[nH]c(N)n1 [Guanazole]	> 90 µM
C=CCN1CCCC1CNC(=O)c1cc(S(N)(=O)=O)cc(OC)c1OC (centres unmarked) [Veralipride]	> 50 µM
COc1cc(NC(=O)CC(C)=O)c(OC)cc1Cl [4'-Chloro-2',5'-dimethoxyacetoacetanilide]	> 90 µM
COc1cc(C(=O)N2CCOCC2)cc(OC)c1OC [Trimetozine]	> 50 µM
C[N+](C)(C)CCOC(N)=O [Carbachol]	> 50 µM
CC1=NN(c2ccc(C(=O)O)cc2)C(=O)C1 [4-(3-Methyl-5-oxo-4,5-dihydro-1H-pyrazol-1-yl)benzoic acid]	> 90 µM
Cc1cn([C@H]2C[C@H](O)[C@@H](CO)O2)c(=O)[nH]c1=O [Thymidine]	> 50 µM
CC(CO)(CO)[N+](=O)[O-] [2-Methyl-2-nitro-1,3-propanediol]	> 90 µM
CC(=O)CC(=O)Nc1ccc(C)cc1C [N-(2,4-Dimethylphenyl)-3-oxobutanamide]	> 90 µM
CC(/C=C1\SC(=S)N(CC(=O)O)C1=O)=C\c1ccccc1 [Epalrestat]	42.6 µM
CCCCOC(=O)[C@H](C)O [Butyl (2S)-2-hydroxypropanoate]	> 90 µM
C=COC(=O)C(C)(C)CCCCCC [Vinyl neodecanoate]	> 90 µM
Cc1cccc(N)c1 [3-Methylaniline hydrochloride]	> 90 µM
C=C(C)C(=O)OCC[N+](C)(C)C [(2-(Methacryloyloxy)ethyl)trimethylammonium chloride]	62.4 µM

SMILES	CC50 at 24 h
CCN(CC)C(=O)c1cccnc1 [N,N-Diethylnicotinamide]	> 50 µM
CC(C)(C)NCCO [2-(tert-Butylamino)ethanol]	> 90 µM
O=C(Nc1ccc(O)cc1)c1ccccc1O [Osalmid]	> 50 µM
CC(=O)C1=C(C)[C@@H]2C[C@@]3(C1)[C@H](C)CC[C@H]3C2(C)C [Acetyl cedrene]	56.9 µM
CCCC(Cn1cncn1)c1ccc(Cl)cc1Cl (centres unmarked) [Penconazole]	78.4 µM
CC(N)C(=O)OC(C)(C)Cc1ccc(Cl)cc1 (centres unmarked) [Alaproclate]	25.5 µM
CC(O)COc1ccccc1 (centres unmarked) [1-Phenoxy-2-propanol]	> 90 µM
CC(=O)c1cccc([N+](=O)[O-])c1 [3-Nitroacetophenone]	> 90 µM
CCCCCCC1CCC(=O)O1 (centres unmarked) [gamma-Decanolactone]	> 90 µM
COc1ccccc1OCC(O)COC(N)=O (centres unmarked) [Methocarbamol]	> 20 µM
CC1(C)[C@H](C(=O)O[C@H](C#N)c2cccc(Oc3ccccc3)c2)[C@@H]1C=C(Cl)Cl [alpha-Cypermethrin]	> 90 µM
Brc1ccc(Br)c(Br)c1 [1,2,4-Tribromobenzene]	> 90 µM
CC1(C)C(=O)C(C)(C)C1=O [2,2,4,4-Tetramethylcyclobutane-1,3-dione]	> 90 µM
C=C(C)[C@@H]1CC=C(C=O)CC1 [l-Perillaldehyde]	> 90 µM
CN1[C@@H]2CC[C@H]1CC(OC(c1ccccc1)c1ccccc1)C2 (some centres unmarked) [Benztropine methylsulfonate]	20.1 µM
CCCCC[Si](OCC)(OCC)OCC [Triethoxypentylsilane]	> 90 µM
COc1nn(C(=O)NS(=O)(=O)c2ccccc2OC(F)(F)F)c(=O)n1C [Flucarbazone-sodium]	> 90 µM
ClC(Cl)(Cl)Cl [Carbon tetrachloride]	> 90 µM
CC(COc1ccc(Oc2ccccc2)cc1)Oc1ccccn1 (centres unmarked) [Pyriproxyfen]	> 90 µM
Clc1cccc(Cl)c1N=C1NCCN1 [Clonidine hydrochloride]	> 90 µM
O=C1C=CC(=O)N1c1ccc(Cc2ccc(N3C(=O)C=CC3=O)cc2)cc1 [Bismaleimide]	6.41 µM
CCCCCCCCCCCCCCCCOP(=O)([O-])OCC[N+](C)(C)C [Miltefosine]	> 50 µM

Same assay, conditions: rat, gh3-tre-luc cells, AC50 (uM) modified / 1000, Tox21_110001=Tox21_111075; viability, 1 nM T3 present, 24 h

SMILES	CC50 at 24 h
CC(C)NC(C)C [Diisopropylamine]	> 50 µM

Same assay, conditions: rat, gh3-tre-luc cells, AC50 (uM) modified / 1000, Tox21_110001=Tox21_112111; viability, 1 nM T3 present, 24 h

SMILES	CC50 at 24 h
C[C@]12CCC(=O)C(O)=C1CC[C@@H]1[C@@H]2CC[C@]2(C)C(=O)CC[C@@H]12 [4-Hydroxyandrostenedione]	> 50 µM

Same assay, conditions: rat, gh3-tre-luc cells, AC50 (uM) modified / 1000, Tox21_110001=Tox21_112891; viability, 1 nM T3 present, 24 h

SMILES	CC50 at 24 h
CCN(CC)CCc1c[nH]c2ccccc12 [N,N-Diethyltryptamine fumarate]	> 100 µM

Same assay, conditions: rat, gh3-tre-luc cells, AC50 (uM) modified / 1000, Tox21_110001=Tox21_200153; viability, 1 nM T3 present, 24 h

SMILES	CC50 at 24 h
ClC(Br)Br [Chlorodibromomethane]	> 90 µM

Same assay, conditions: rat, gh3-tre-luc cells, AC50 (uM) modified / 1000, Tox21_110001=Tox21_200216; viability, 1 nM T3 present, 24 h

SMILES	CC50 at 24 h
CC(C)NC(C)C [Diisopropylamine]	> 90 µM

Same assay, conditions: rat, gh3-tre-luc cells, AC50 (uM) modified / 1000, Tox21_110001=Tox21_200290; viability, 1 nM T3 present, 24 h

SMILES	CC50 at 24 h
ClC1=C(Cl)C2(Cl)C3C(Cl)C(Cl)CC3C1(Cl)C2(Cl)Cl (centres unmarked) [Technical chlordane]	27.8 µM

Same assay, conditions: rat, gh3-tre-luc cells, AC50 (uM) modified / 1000, Tox21_110001=Tox21_201427; viability, 1 nM T3 present, 24 h

SMILES	CC50 at 24 h
BrCCBr [1,2-Dibromoethane]	> 90 µM

Same assay, conditions: rat, gh3-tre-luc cells, AC50 (uM) modified / 1000, Tox21_110001=Tox21_201952; viability, 1 nM T3 present, 24 h

SMILES	CC50 at 24 h
CC(O)CN(CC(C)O)CC(C)O (centres unmarked) [Triisopropanolamine]	> 90 µM

Same assay, conditions: rat, gh3-tre-luc cells, AC50 (uM) modified / 1000, Tox21_110001=Tox21_302286; viability, 1 nM T3 present, 24 h

SMILES	CC50 at 24 h
C[C@]12CCC(=O)C(O)=C1CC[C@@H]1[C@@H]2CC[C@]2(C)C(=O)CC[C@@H]12 [4-Hydroxyandrostenedione]	> 90 µM
